# Laboratory results taken from patent US8293979B2, “Weed controller metabolism proteins, genes, thereof and use of the same” (Sumitomo Chemical Company, Limited, priority 2001, dated 2012).
# Tested on: leaf pieces derived from the tobacco to which the control DNA (T-DNA region of plasmid pBI121S) was introduced
# Assay: Herbicidal damage of tobacco leaf pieces on MS agar medium containing compound (II)
# Format: cell-based, Nicotiana tabacum strain SR1
# Conditions: MS agar medium containing 0.1 mg/L of compound (II), in the light at room temperature, 7th day of culturing
# Protocol: Then, according to the method described in Manual for Gene Manipulation of Plant (by Hirofumi UCHIMIYA, Kodan-sha Scientific, 1992), the gene was introduced into tobacco. Agrobacterium strains bearing the above plasmids were each cultured at 28° C. overnight in LB medium containing 300 mg/L streptomycin, 100 mg/L rifampicin and 25 mg/L kanamycin, and then leaf pieces of tobacco (Nicotiana tabacum strain SR1) cultured sterilely were dipped in the liquid culture medium. The leaf pieces were planted and cultured at room temperature for 2 days in the light in MS agar medium (MS inorganic salts, MS vitamins, 3% sucrose and 0.8% agar; described in Murashige T. and Skoog F., Physiol. Plant. (1962) 15, p 473) containing 0.1 mg/L of naphthalene acetic acid and 1.0 mg/L of benzyl aminopurine. Then, the leaf pieces were washed with sterilized water and cultured for 7 days on MS agar medium containing 0.1 mg/L of naphthalene acetic acid, 1.0 mg/L of benzyl aminopurine and 500 mg/L of cefotaxime. Next, the leaf pieces were transplanted and cultured in MS agar medium containing 0.1 mg/L of naphthalene acetic acid, 1.0 mg/L of benzyl aminopurine, 500 mg/L of cefotaxime and 100 mg/L of kanamycin. The culture was conducted continuously for 4 months while transplanting the leaf pieces to fresh medium of the same composition at intervals of 4 weeks. […]
compound,measurement,value
C[C@@H](Oc1cc(-n2c(=O)cc(C(F)(F)F)n(C)c2=O)c(F)cc1Cl)C(=O)O [compound (II)],herbicidal damage of the leaf pieces,turned white and withered
